In patent publication US10167262B2, “Herbicidal substituted 3-arylpyrazoles” (FMC CORPORATION, priority 2014, dated 2019):

How the values were obtained:
Test in all cases: Test E pre-/postemergence greenhouse test, plant response rating 0-100
Format in all cases: in vivo
Details in all cases: Preemergence, scale 0 to 100
[1] = test system: giant foxtail (Setaria faberii)
[2] = test system: morningglory (Ipomoea coccinea)
[3] = test system: green foxtail (Setaria viridis)
[4] = test system: large (Lg) crabgrass (Digitaria sanguinalis)
[5] = test system: surinam grass (Brachiaria decumbens)
How it was run: (§1)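 Sow seeds in silt loam and treat preemergence; at the same time, spray postemergence on 1- to 4-leaf plants in peat/vermiculite mix. Use a non-phytotoxic solvent plus surfactant as carrier. Hold 14–21 days in greenhouse, then score visually 0–100 against controls.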

[6] = test system: ragweed (common ragweed, Ambrosia elatior)
How it was run: as §1

[7] = test system: lambsquarters (Chenopodium album)
How it was run: as §1

[8] = test system: nightshade (eastern black nightshade, Solanum ptycanthum)
How it was run: as §1

CCn1cc(C(=O)c2ccccc2)c(-c2cc(Cl)cc(Cl)c2)n1 [Compound 31, [3-(3,5-dichlorophenyl)-1-ethyl-1H-pyrazol-4-yl]phenylmethanone]
Foxtail, Giant plant response rating ([1]; 62 g ai/ha): 0 | Foxtail, Giant plant response rating ([1]; 125 g ai/ha): 0 | Foxtail, Giant plant response rating ([1]; 250 g ai/ha): 0 | Foxtail, Giant plant response rating ([1]; 500 g ai/ha): 0 | Morningglory plant response rating ([2]; 62 g ai/ha): 0 | Morningglory plant response rating ([2]; 125 g ai/ha): 0 | Morningglory plant response rating ([2]; 250 g ai/ha): 0 | Morningglory plant response rating ([2]; 500 g ai/ha): 0 | Foxtail, Green plant response rating ([3]; 62 g ai/ha): 0 | Foxtail, Green plant response rating ([3]; 125 g ai/ha): 0 | Foxtail, Green plant response rating ([3]; 250 g ai/ha): 0 | Foxtail, Green plant response rating ([3]; 500 g ai/ha): 0 | Crabgrass, Large plant response rating ([4]; 62 g ai/ha): 0 | Crabgrass, Large plant response rating ([4]; 125 g ai/ha): 0 | Crabgrass, Large plant response rating ([4]; 250 g ai/ha): 0 | Crabgrass, Large plant response rating ([4]; 500 g ai/ha): 0 | Surinam Grass plant response rating ([5]; 62 g ai/ha): 0 | Surinam Grass plant response rating ([5]; 125 g ai/ha): 0 | Surinam Grass plant response rating ([5]; 250 g ai/ha): 0 | Surinam Grass plant response rating ([5]; 500 g ai/ha): 0 | Ragweed plant response rating ([6]; 62 g ai/ha): 0 | Ragweed plant response rating ([6]; 125 g ai/ha): 35 | Ragweed plant response rating ([6]; 250 g ai/ha): 50 | Ragweed plant response rating ([6]; 500 g ai/ha): 80 | Lambsquarters plant response rating ([7]; 62 g ai/ha): 0 | Lambsquarters plant response rating ([7]; 125 g ai/ha): 100 | Lambsquarters plant response rating ([7]; 250 g ai/ha): 100 | Lambsquarters plant response rating ([7]; 500 g ai/ha): 100 | Nightshade plant response rating ([8]; 62 g ai/ha): 0 | Nightshade plant response rating ([8]; 125 g ai/ha): 0 | Nightshade plant response rating ([8]; 250 g ai/ha): 0 | Nightshade plant response rating ([8]; 500 g ai/ha): 50
